According to patent publication US11819514B2, “Use of oligosaccharide riclinoctaose in preparation of drug for treating and/or preventing ischemia-reperfusion injury (IRI)” (Nanjing Southern Element Biotechnology Co., Ltd., priority 2021, dated 2023):
Entries after “also recorded” stand apart in the source; their conditions may differ.

Key:
[1] = tested on: intestinal microflora; conditions: cited from earlier work
[2] = tested on: male C57/BL6J mice; test: HIRI mouse model: histological analysis of liver (H&E); assay type: in vivo
Protocol: (§1) The experimental animals were male C57/BL6J mice aged 6 to 8 weeks and weighed 22 g to 26 g. The mice were housed under standard experimental conditions with a 12-hour light-12-hour dark cycle with free access to water and food. The mice were anesthetized with isoflurane, the abdomen was operated on, and the blood supply to middle and left lobes of the liver was blocked with non-invasive hemostatic clips, resulting in 70% hepatic ischemia; after 30 min of ischemia, the clips were removed, and samples were collected to measure biochemical parameters after reperfusion for 6 h.
The mice were administered by intraperitoneal injection and randomly divided into four groups; a first group was a sham-operation group (sham), the animals in the sham-operation group received the same laparotomy without vascular clip occlusion; a second group was a model group (IR); a third group was a low-dosage group (LRO), with 20 mg/mL of the oligosaccharide riclinoctaose injected intraperitoneally about 4 h to 6 h before surgery; and a fourth group was a high-dosage group (HRO), with 40 mg/mL of the oligosaccharide riclinoctaose injected intraperitoneally about 4 h to 6 h before surgery. The oligosaccharide riclinoctaose drug was dissolved in a 0.9% normal saline. […]

[3] = tested on: male C57/BL6J mice; test: RIRI mouse model: histological analysis of kidney (H&E, PAS); assay type: in vivo; conditions: vs model group
Source text: (§2) The experimental animals were male C57/BL6J mice aged 6 to 8 weeks and weighed 22 g to 26 g; the mice were anesthetized with isoflurane, and the abdomen was operated on, and after the righting reflex disappeared, the mice were placed in a prone position on a mouse dissection table and fixed; under sterile conditions, the abdominal cavity was opened along a 1.5 cm longitudinal incision on both dorsal sides, the muscles were bluntly separated, and the renal pedicles on both sides were exposed; the blood flow was blocked with a non-invasive vascular clip, and the kidneys turned from red to dark purple, indicating successful ischemia. After 30 min of ischemia, the arterial clips were released, and the abdominal cavity was closed after the kidneys were restored to perfusion; after 24 h, samples were collected to measure biochemical indicators, and an RIRI model was established.
(§3) The mice were administered by intraperitoneal injection and randomly divided into four groups; a first group was a sham-operation group (sham), the animals in the sham-operation group received the same laparotomy without vascular clip occlusion; a second group was a model group (IR); a third group was a low-dosage group (LRO), with 20 mg/mL of the oligosaccharide riclinoctaose injected intraperitoneally about 4 h to 6 h before surgery; and a fourth group was a high-dosage group (HRO), with 40 mg/mL of the oligosaccharide riclinoctaose injected intraperitoneally about 4 h to 6 h before surgery. The oligosaccharide riclinoctaose drug was dissolved in a 0.9% normal saline.
Histomorphological changes in mouse kidneys were analyzed by H&E staining and PAS staining. The resected kidney tissue was immediately fixated with buffered 4% paraformaldehyde (in a PBS buffer) for histological analysis, embedded in paraffin, and sections were stained with by H&E or PAS. The necrosis and structural damages of nephrocytes were observed by a microscope.

[4] = tested on: male C57/BL6J mice; test: CIRI (MCAO) mouse model: neurofunctional scoring (mNSS, Longa); assay type: in vivo
Source text: The experimental animals were male C57/BL6J mice aged 6 to 8 weeks and weighed 22 g to 26 g. Mice were anesthetized with isoflurane and placed on a supine heating pad. The skin was disinfected with iodine and 75% ethanol. A midline neck incision is made to expose the carotid artery […]. An external carotid artery (ECA) was isolated and occluded with two knots. An internal carotid artery (ICA) was isolated, and the MCA and ICA were clamped with microvascular clips. A small hole was cut in the ECA between the knot and a bifurcation point. A silicone rubber-coated, 30-mm-long, and 0.11-mm-diameter middle cerebral artery occlusion (MCAO) tether was introduced into the ICA. The artery was opened while sutures were inserted to block the blood vessel. A third knot on the ICA was closed and the suture was secured in a proper place. The mouse abdominal cavity was sutured, and the mice were placed in a heated cage for 30 min, and the wound was closed using small suture clips. The third knot was loosened, the filament was removed, and reperfusion was conducted for 24 h. The skin was closed and the mice were returned to individual cages.
as §3, with “neck incision” for “laparotomy”, “suture blockage;” for “clip occlusion;”
Neurofunctional scoring: the neurobehavioral functions were assessed using mNSS and Longa scores. The mNSS assessed neurological deficits through motor, reflex, sensory, and balance tests. Scores ranged from 0 (indicating no neurological deficit) to 18 (indicating the most severely-injured animal). The Longa score was determined as follows: 0 points, no neurological deficit; 1 point, the animals were unable to fully extend the contralateral forelimbs; 2 points, there was a tail scratching phenomenon when walking (circling to the opposite side); 3 points, a standing posture was unstable, falling to the opposite side; and 4 points, there was no spontaneous walking and loss of consciousness. A score of 0 to 2 was classified as mild nerve injury, while a score of 3 to 4 was classified as severe nerve injury.
(§4) Comparisons between multiple groups were statistically analyzed using a One-way ANOVA statistical method. P<0.05 was considered to have a significant effect.

[5] = cited from earlier work
[6] = tested on: male C57/BL6J mice; test: RIRI mouse model: plasma biochemical indicators (BUN, Creatinine, LDH); assay type: in vivo; conditions: i.p. 20 or 40 mg/mL 4 h to 6 h before surgery, 30 min ischemia, 24 h reperfusion
Source text: as §2, with “established. […]” for “established.”
Whole blood was collected, allowed to coagulate naturally at a room temperature, centrifuged at 2,000 r/min for 10 min, and a supernatant was collected for the determination of BUN, Creatinine, and LDH. The plasma BUN, Creatinine and LDH concentrations of mice in each group were analyzed according to instructions of the plasma BUN, Creatinine, and LDH detection kits, followed by operation steps in kit instructions, and finally concentrations were determined by colorimetry at a wavelength of 510 nm or 440 nm.
Comparisons between multiple groups were statistically analyzed using a One-way ANOVA statistical method. […]

[7] = tested on: male C57/BL6J mice; test: HIRI mouse model: serum enzyme activity assay (ALT, AST, LDH); assay type: in vivo; conditions: i.p. 20 mg/mL (LRO) and 40 mg/mL (HRO) 4 h to 6 h before surgery, 30 min ischemia, 6 h reperfusion, vs model group
Protocol: as §1, §3
Whole blood was collected, allowed to coagulate naturally at a room temperature, centrifuged at 2,000 r/min for 10 min, and a supernatant was collected for the determination of ALT, AST and LDH enzyme activities. The activities of AST, ALT and LDH were determined by an enzyme colorimetric quantitative analysis method, according to operation steps in kit instructions, and finally concentrations were determined by colorimetry at a wavelength of 505 nm or 440 nm.
as §4

[8] = i.p. injection before surgery, 30 min occlusion, 24 h reperfusion, vs model group

Substance: D-Glcp(4,6-pyr)-β-(1→3)-D-Glcp-β-(1→3)-D-Glcp-β-(1→6)-D-Glcp-β-(1→6)-D-Glcp-β-(1→4)-D-Glcp-β-(1→4)-D-Glcp-β-(1→3)-D-Galp [oligosaccharide riclinoctaose]
- effect on intestinal microflora as a prebiotic [1]: significantly improve the intestinal microflora
- necrotic area of liver parenchyma cells (H&E staining) ([2]; i.p. 20 and 40 mg/mL before surgery, 6 h reperfusion): reduction of a necrotic area of liver parenchyma cells
- liver tissue morphology / degree of damages (H&E staining) ([2]; treatment groups compared with sham-operation and model groups): the treatment groups and the sham-operation group have the closest tissue morphology, indicating a lesser degree of damages
- area of cell necrosis in kidney (H&E staining) [3]: the area of cell necrosis is reduced
- brush border shedding of renal tubule cells and degree of cell necrosis (PAS staining) [3]: significantly reduced
- infiltration of inflammatory factors in kidney (H&E staining) [3]: the infiltration of inflammatory factors is also reduced
- neurobehaviour, low-dosage group (LRO) ([4]; 20 mg/mL i.p. 4 h to 6 h before surgery): cannot fully extend the contralateral forelimbs, the mice are not as severe as those in the model group
- neurobehaviour, high-dosage group (HRO) ([4]; 40 mg/mL i.p. 4 h to 6 h before surgery): behave similarly to those in the sham-operation group (sham) without neurological deficits
- neurological deficit by Longa score [4, 8]: the neurological deficit of mice can be significantly reduced
- neurological deficit by mNSS [4, 8]: the neurological deficit of mice can be significantly reduced
- water solubility [5]: desirable water solubility
- plasma BUN [6]: significantly decreased
- plasma Creatinine [6]: significantly decreased
- plasma LDH [6]: significantly decreased
- ALT activity in serum [7]: decrease the AST, ALT and LDH values in a dosage-dependent manner; also recorded: significant reduction of ALT, AST, LDH activities in serum
- AST activity in serum [7]: decrease the AST, ALT and LDH values in a dosage-dependent manner; also recorded: significant reduction of ALT, AST, LDH activities in serum
- LDH activity in serum [7]: decrease the AST, ALT and LDH values in a dosage-dependent manner; also recorded: significant reduction of ALT, AST, LDH activities in serum
